Measured values from article PMC3605901 (Bioorganic & medicinal chemistry, 2013).
In brackets after ≈: the same amount, converted by molar mass. Entries after “also recorded” stand apart in the source; their conditions may differ. Like-named read-outs stand apart in the source and are kept apart here.

Experiments:
HeLa cells = test: Mammalian cytotoxicity assay; type: cell-based; conditions: up to 100 μM, the highest concentration tested; 24 hours
GAS strain UMAA2616 = test: microbe, parasite or virus in culture; type: cell-based, Streptococcus pyogenes (Group A Streptococcus); conditions: Streptococcus pyogenes, UMAA2616, read-out: 50 μM Growth T/C
[1] = Microsomal stability assay; conditions: for MLM t1/2: half-life of parent compound during incubation with mouse liver microsomes, 1 μM, 0.5 mg/mL, NADPH; for half-life at 1 μM: mouse, microsomes
Aqueous = conditions: for Aq. Sol.: kinetic solubility in aqueous Todd Hewitt (THY) bacterial media, 37°C
[2] = tested on: S. aureus biofilm formation; test: Biofilm formation, plate-based OD assay; type: cell-based, Staphylococcus aureus; conditions: reported in greater detail in ref 28
[3] = biological target: streptokinase (SK) expression in GAS strain UMAA2616; test: microbe, parasite or virus in culture; type: cell-based, Streptococcus pyogenes (Group A Streptococcus); conditions: for IC50: read-out: IC50 (SK activity)
GAS infection = conditions: transgenic mouse model of GAS infection; cited from earlier work
[4] = full dose-response titration, approximate IC50

Question: For `COCCSc1nc2c(c(=O)n1CCc1ccc(OC)cc1)C(C)(C)Cc1ccccc1-2` [19a, 2-((2-Methoxyethyl)thio)-3-(4-methoxyphenethyl)-5,5-dimethyl-5,6-dihydrobenzo[h]quin-azolin-4(3H)-one], which “Inhibition of HeLa cell growth” value (HeLa cells) is on record?
Answer: The value was no more than 35%.

Question: Which activity at 50 µM (GAS strain UMAA2616) does the source give for `CCn1c(SCCOC)nc2c(c1=O)C(C)(C)Cc1ccccc1-2` [12i, 3-ethyl-2-((2-methoxyethyl)thio)-5,5-dimethyl-5,6-dihydrobenzo[h]quinazolin-4(3H)-one] here?
Answer: Its activity at 50 µM is 39 ± 15%.

Question: With “4-(allyloxy)-2-(ethylthio)-9-methoxy-5,5-dimethyl-5,6-dihydrobenzo[h]quinazoline [20c]” as the compound, how does the “MLM t1/2” value [1] read?
Answer: Its value is 8.3 min.

Question: Which results are given for “3-allyl-2-(ethylthio)-8-methoxy-5,5-dimethyl-5,6-dihydrobenzo[h]quinazolin-4(3H)-one [12c]”?
Answer: MLM t1/2 [1]: 0.8 min; Inhibition of HeLa cell growth (HeLa cells): ≤ 35%; Aq. Sol. (Aqueous): 14.5 ± 3.5 µM; S. aureus biofilm inhibition [2]: potent S. aureus biofilm inhibitors; IC50 [3, 4]: 3.1 ± 0.7 µM

Question: Which “Efficacy in mouse models of GAS infection” value (GAS infection) does the source give for `C=CCn1c(SCCCC)nc2c(c1=O)C1(CCCCC1)Cc1ccccc1-2` [compound 1, 3-allyl-2-(butylthio)-3H-spiro[benzo[h]quinazoline-5,1′-cyclohexan]-4(6H)-one] here?
Answer: Its value is “displayed efficacy; also recorded: significant protective effect”.

Question: And the “Fold higher stability to oxidation in MLM (comparison of t1/2)” value ([1]; 1 vs 6b, O-alkylated vs N-alkylated counterparts)?
Answer: Its value is “more than 60 fold”.

Question: And the “Inhibition of HeLa cell growth” value (HeLa cells)?
Answer: Its value is no more than 35%.

Question: And the activity at 50 µM (GAS strain UMAA2616)?
Answer: The activity at 50 µM was 95 ± 8%.

Question: And the solubility at 5 min (Aqueous)?
Answer: The solubility at 5 min was 2 ± 1 µM (≈ 0.789 µg/mL).

Question: What about the “% of plasmin activity at 50 μM” value [3] of the same compound?
Answer: The value was 48 ± 28%.

Question: And the IC50 ([3]; Streptococcus pyogenes)?
Answer: Its IC50 is greater than 50 µM.

Question: Which half-life at 1 μM [1] does the source give for `C=CCn1c(SCC(F)(F)F)nc2c(c1=O)C(C)(C)Cc1ccc(OC)cc1-2` [12l, 3-allyl-9-methoxy-5,5-dimethyl-2-((2,2,2-trifluoroethyl)thio)-5,6-dihydrobenzo[h]quinazolin-4(3H)-one] here?
Answer: The half-life at 1 μM was 4.8 min.

Question: What about the activity at 50 µM (GAS strain UMAA2616) of the same compound?
Answer: The activity at 50 µM was 86 ± 7%.

Question: For `C=CCn1c(OCC)nc2c(c1=O)C1(CCCCC1)Cc1ccccc1-2` [7a, 3-allyl-2-ethoxy-3H-spiro[benzo[h]quinazoline-5,1′-cyclohexan]-4(6H)-one], which activity at 50 µM (GAS strain UMAA2616) is on record?
Answer: Its activity at 50 µM is 102 ± 9%.

Question: Which half-life at 1 μM [1] does the source give for `C=CCn1c([S+]([O-])CC)nc2c(c1=O)C(C)(C)Cc1ccc(OC)cc1-2` (stereo not drawn) [compound 14, 3-allyl-2-(ethylsulfinyl)-9-methoxy-5,5-dimethyl-5,6-dihydrobenzo[h]quinazolin-4(3H)-one] here?
Answer: Its half-life at 1 μM is 2.8 min.

Question: And the activity at 50 µM (GAS strain UMAA2616)?
Answer: Its activity at 50 µM is 101 ± 5%.

Question: For `C=CCn1c(SCc2ccc(NC(C)=O)cc2)nc2c(c1=O)C1(CCCCC1)Cc1ccccc1-2` [6c, N-(4-(((3-allyl-4-oxo-4,6-dihydro-3H-spiro[benzo[h]quinazoline-5,1′-cyclohexan]-2-yl)thio)methyl)phenyl)acetamide], which activity at 50 µM (GAS strain UMAA2616) is on record?
Answer: Its activity at 50 µM is 96 ± 14%.

Question: For `C=CCn1c(SC)nc2c(c1=O)C1(CCCCC1)Cc1ccccc1-2` [6f, 3-allyl-2-(methylthio)-3H-spiro[benzo[h]quinazoline-5,1′-cyclohexan]-4(6H)-one], which activity at 50 µM (GAS strain UMAA2616) is on record?
Answer: Its activity at 50 µM is 98 ± 3%.

Question: Which “Aq. Sol.” value (Aqueous) does the source give for “3-Allyl-2-(ethylthio)-8-isopropoxy-5,5-dimethyl-5,6-dihydrobenzo[h]quinazolin-4(3H)-one [17f]” here?
Answer: Its value is 14.5 ± 3.5 µM.

Question: And the IC50 [3, 4]?
Answer: Its IC50 is 4.1 ± 0.7 µM.

Question: Which activity at 50 µM (GAS strain UMAA2616) does the source give for `CCn1c(SCc2ccccc2)nc2c(c1=O)C1(CCCC1)Cc1ccccc1-2` [compound 28] here?
Answer: The activity at 50 µM was 107 ± 4%.

Question: With `C=CCn1c(SCCO)nc2c(c1=O)C(C)(C)Cc1ccccc1-2` [12f, 3-allyl-2-((2-hydroxyethyl)thio)-5,5-dimethyl-5,6-dihydrobenzo[h]quinazolin-4(3H)-one] as the compound, how does the activity at 50 µM (GAS strain UMAA2616) read?
Answer: Its activity at 50 µM is 6 ± 3%.

Question: Which activity at 50 µM (GAS strain UMAA2616) does the source give for `C=CCn1c(SCc2ccc(OC)cc2)nc2c(c1=O)C1(CCCCC1)Cc1ccccc1-2` [6a, 3-allyl-2-((4-methoxybenzyl)thio)-3H-spiro[benzo[h]quinazoline-5,1′-cyclohexan]-4(6H)-one] here?
Answer: The activity at 50 µM was 105 ± 6%.

Question: Which activity at 50 µM (GAS strain UMAA2616) does the source give for `C=CCn1c(SCc2ccccn2)nc2c(c1=O)C(C)(C)Cc1ccccc1-2` [12e, 3-allyl-5,5-dimethyl-2-((pyridin-2-ylmethyl)thio)-5,6-dihydrobenzo[h]quinazolin-4(3H)-one] here?
Answer: Its activity at 50 µM is 105 ± 2%.

Question: With “2-(ethylthio)-9-methoxy-5,5-dimethyl-3-(2,2,2-trifluoroethyl)-5,6-dihydrobenzo[h]quinazolin-4(3H)-one [19b]” as the compound, how does the “MLM t1/2” value [1] read?
Answer: The value was 3.0 min.

Question: With `C=CCn1c(SCC#N)nc2c(c1=O)C(C)(C)Cc1ccccc1-2` [12g, 2-((3-allyl-5,5-dimethyl-4-oxo-3,4,5,6-tetrahydrobenzo[h]quinazolin-2-yl)thio)acetonitrile] as the compound, how does the activity at 50 µM (GAS strain UMAA2616) read?
Answer: The activity at 50 µM was 100 ± 3%.

Question: And the solubility at 5 min (Aqueous)?
Answer: Its solubility at 5 min is 3 ± 1 µM (≈ 1.01 µg/mL).

Question: For `C=CCn1c(SCC(N)=O)nc2c(c1=O)C(C)(C)Cc1ccccc1-2` [12d, 2-((3-allyl-5,5-dimethyl-4-oxo-3,4,5,6-tetrahydrobenzo[h]quinazolin-2-yl)thio)acetamide], which activity at 50 µM (GAS strain UMAA2616) is on record?
Answer: Its activity at 50 µM is 100 ± 2%.

Question: For “2-((2-Methoxyethyl)thio)-4-(4-methoxyphenethoxy)-5,5-dimethyl-5,6-dihydrobenzo[h]quinazoline [20a]”, which “MLM t1/2” value [1] is on record?
Answer: The value was 45.1 min.

Question: What about the “Inhibition of HeLa cell growth” value (HeLa cells) of the same compound?
Answer: Its value is no more than 35%.

Question: What about the IC50 [3, 4] of the same compound?
Answer: The IC50 was 5.5 ± 0.7 µM.

Question: With `C=CCn1c(NCC)nc2c(c1=O)C(C)(C)Cc1ccccc1-2` [13b, 3-allyl-2-(ethylamino)-5,5-dimethyl-5,6-dihydrobenzo[h]quinazolin-4(3H)-one] as the compound, how does the activity at 50 µM (GAS strain UMAA2616) read?
Answer: Its activity at 50 µM is 6 ± 3%.

Question: For `C=CCn1c(SCCOC)nc2c(c1=O)C(C)(C)Cc1ccccc1-2` [12h, 3-allyl-2-((2-methoxyethyl)thio)-5,5-dimethyl-5,6-dihydrobenzo[h]quinazolin-4(3H)-one], which “Inhibition of HeLa cell growth” value (HeLa cells) is on record?
Answer: The value was no more than 35%.

Question: What about the activity at 50 µM (GAS strain UMAA2616) of the same compound?
Answer: Its activity at 50 µM is 86 ± 10%.

Question: Which activity at 50 µM (GAS strain UMAA2616) does the source give for `C=CCn1c(NCC)nc2c(c1=O)C1(CCCCC1)Cc1ccccc1-2` [7b, 3-allyl-2-(ethylamino)-3H-spiro[benzo[h]quinazoline-5,1′-cyclohexan]-4(6H)-one] here?
Answer: Its activity at 50 µM is 32 ± 18%.

Question: Which results are given for `CCSc1nc2c(c(=O)n1C)C(C)(C)Cc1ccc(OC)cc1-2` [12m, 2-(ethylthio)-9-methoxy-3,5,5-trimethyl-5,6-dihydrobenzo[h]quinazolin-4(3H)-one]?
Answer: half-life at 1 μM [1]: 1.7 min; activity at 50 µM (GAS strain UMAA2616): 83 ± 15%

Question: Which “MLM t1/2” value [1] does the source give for “2-(ethylthio)-9-methoxy-5,5-dimethyl-4-(2,2,2-trifluoroethoxy)-5,6-dihydrobenzo[h]quinazoline [20b]” here?
Answer: Its value is 45.5 min.

Question: With `C=CCn1c(SCCN(C)C)nc2c(c1=O)C1(CCCCC1)Cc1ccccc1-2` [6e, 3-allyl-2-((2-(dimethylamino)ethyl)thio)-3H-spiro[benzo[h]quinazoline-5,1′-cyclohexan]-4(6H)-one] as the compound, how does the activity at 50 µM (GAS strain UMAA2616) read?
Answer: Its activity at 50 µM is 88 ± 20%.

Question: What does the source list for `C=CCn1c(S(=O)(=O)CC)nc2c(c1=O)C(C)(C)Cc1ccc(OC)cc1-2` [compound 15, 3-allyl-2-(ethylsulfonyl)-9-methoxy-5,5-dimethyl-5,6-dihydrobenzo[h]quinazolin-4(3H)-one]?
Answer: half-life at 1 μM [1]: 3.8 min; activity at 50 µM (GAS strain UMAA2616): 103 ± 3%

Question: For `C=CCn1c(SCCOC)nc2c(c1=O)C1(CCCCC1)Cc1ccccc1-2` [6d, 3-allyl-2-((2-methoxyethyl)thio)-3H-spiro[benzo[h]quinazoline-5,1′-cyclohexan]-4(6H)-one], which activity at 50 µM (GAS strain UMAA2616) is on record?
Answer: The activity at 50 µM was 99 ± 10%.

Question: Which activity at 50 µM (GAS strain UMAA2616) does the source give for `C=CCn1c(OCC)nc2c(c1=O)C(C)(C)Cc1ccccc1-2` [13a, 3-allyl-2-ethoxy-5,5-dimethyl-5,6-dihydrobenzo[h]quinazolin-4(3H)-one] here?
Answer: Its activity at 50 µM is 50 ± 23%.

Question: Which activity at 50 µM (GAS strain UMAA2616) does the source give for `C=CCn1c(SCC)nc2c(c1=O)C(C)(C)Cc1ccccc1-2` [compound 30] here?
Answer: Its activity at 50 µM is 89 ± 5%.

Question: Which results are given for `C=CCn1c(SCc2ccccc2)nc2c(c1=O)C1(CCCCC1)Cc1ccccc1-2` [6b, 3-allyl-2-(benzylthio)-3H-spiro[benzo[h]quinazoline-5,1′-cyclohexan]-4(6H)-one]?
Answer: activity at 50 µM (GAS strain UMAA2616): 96 ± 6%; IC50 ([3]; Streptococcus pyogenes): > 50 µM

Question: Which results are given for “3-Allyl-2-(allylthio)-8-methoxy-5,5-dimethyl-5,6-dihydrobenzo[h]quinazolin-4(3H)-one [12k]”?
Answer: MLM t1/2 [1]: 0.6 min; Aq. Sol. (Aqueous): 14.5 ± 3.5 µM; S. aureus biofilm inhibition [2]: potent S. aureus biofilm inhibitors; IC50 [3, 4]: 6.9 ± 0.3 µM

Question: Which results are given for `C=CCn1c(SCc2ccccc2)nc2c(c1=O)C(C)(C)Cc1ccccc1-2` [compound 29]?
Answer: Inhibition of HeLa cell growth (HeLa cells): ≤ 35%; activity at 50 µM (GAS strain UMAA2616): 103 ± 3%

Question: Which results are given for “3-allyl-2-(ethylthio)-9-methoxy-5,5-dimethyl-2,3,5,6-tetrahydrobenzo[h]quinazolin-4(1H)-one [12a]”?
Answer: MLM t1/2 [1]: 2.3 min; Inhibition of HeLa cell growth (HeLa cells): ≤ 35%; Aq. Sol. (Aqueous): 9 ± 2 µM; Fold improvement in potency (IC50) over 1 [3]: greater than 35 fold; Reduction in streptokinase activity at 5 μM [3]: 90%; IC50 [3, 4]: 1.3 ± 0.6 µM

Question: Which activity at 50 µM (GAS strain UMAA2616) does the source give for `C=CCn1c(SCC(=O)OCC)nc2c(c1=O)C(C)(C)Cc1ccccc1-2` [compound 31] here?
Answer: The activity at 50 µM was 101 ± 2%.
